Test results reported in PubChem BioAssay AID248 (DTP/NCI, 2004).
Toxic doses and inconclusive results are not listed. No stated cut-off is given here; in the data, active means T/C of 150% or more; inactive means T/C below 125%.

System: L1210 leukemia ip in BDF1 mice, survival T/C
Assay: NCI In Vivo Anticancer Drug Screen. Data for tumor model L1210 Leukemia (intraperitoneal) in B6D2F1 (BDF1) mice
Details: endpoint: mean survival time, higher = longer survival
In short: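 Tumor cells were implanted, animals were treated, and survival was followed. The result divides the treated measurement by the vehicle-control measurement.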

[1] = dose: 100.0 mg/kg/injection, schedule: Q01DX001 (ip), vehicle: saline
[2] = dose: 200.0 mg/kg/injection, schedule: Q01DX001 (ip), vehicle: saline
[3] = dose: 100.0 mg/kg/injection, schedule: Q04DX003 (ip), vehicle: saline with Tween-80
[4] = dose: 200.0 mg/kg/injection, schedule: Q04DX003 (ip), vehicle: saline with Tween-80
[5] = dose: 400.0 mg/kg/injection, schedule: Q04DX003 (ip), vehicle: saline with Tween-80
[6] = dose: 400.0 mg/kg/injection, schedule: Q01DX001 (ip), vehicle: saline
[7] = dose: 100.0 mg/kg/injection, schedule: Q04DX003 (ip), vehicle: Klucel (hydroxypropylcellulose) (HPC)
[8] = dose: 200.0 mg/kg/injection, schedule: Q04DX003 (ip), vehicle: Klucel (hydroxypropylcellulose) (HPC)
[9] = dose: 400.0 mg/kg/injection, schedule: Q04DX003 (ip), vehicle: Klucel (hydroxypropylcellulose) (HPC)
[10] = dose: 50.0 mg/kg/injection, schedule: Q01DX001 (ip), vehicle: carboxymethylcellulose (CMC)
[11] = dose: 100.0 mg/kg/injection, schedule: Q01DX001 (ip), vehicle: Klucel (hydroxypropylcellulose) (HPC)
[12] = dose: 100.0 mg/kg/injection, schedule: Q01DX001 (ip), vehicle: carboxymethylcellulose (CMC)
[13] = dose: 200.0 mg/kg/injection, schedule: Q01DX001 (ip), vehicle: Klucel (hydroxypropylcellulose) (HPC)
[14] = dose: 200.0 mg/kg/injection, schedule: Q01DX001 (ip), vehicle: carboxymethylcellulose (CMC)
[15] = dose: 100.0 mg/kg/injection, schedule: Q01DX009 (ip), vehicle: saline
[16] = dose: 200.0 mg/kg/injection, schedule: Q01DX009 (ip), vehicle: saline
[17] = dose: 400.0 mg/kg/injection, schedule: Q01DX009 (ip), vehicle: saline
[18] = dose: 100.0 mg/kg/injection, schedule: Q04DX003 (ip), vehicle: saline
[19] = dose: 200.0 mg/kg/injection, schedule: Q04DX003 (ip), vehicle: saline
[20] = dose: 400.0 mg/kg/injection, schedule: Q04DX003 (ip), vehicle: saline
[21] = dose: 100.0 mg/kg/injection, schedule: Q04DX002 (ip), vehicle: saline
[22] = dose: 200.0 mg/kg/injection, schedule: Q04DX002 (ip), vehicle: saline
[23] = dose: 400.0 mg/kg/injection, schedule: Q04DX002 (ip), vehicle: saline

Measured: T/C

O=S(=O)(CCN1CCCCC1)c1ccc(F)cc1
inactive: [1] 100 % of control | [2] 100 % of control

CC(=O)Nc1cccc(/C=C/c2nc(N)nc(N)c2-c2ccc(Cl)cc2)c1
inactive: dose: 100.0 mg/kg/injection, schedule: Q01DX001 (ip), vehicle: saline with Tween-80 98 % of control | dose: 200.0 mg/kg/injection, schedule: Q01DX001 (ip), vehicle: saline with Tween-80 87 % of control | dose: 400.0 mg/kg/injection, schedule: Q01DX001 (ip), vehicle: saline with Tween-80 90 % of control

[Tl][CH]1C=CC=C1
inactive: dose: 100.0 mg/kg/injection, schedule: Q01DX001 (ip), vehicle: acetone 93 % of control

COc1ccc(CCNC(=O)Cc2ccccc2[N+](=O)[O-])cc1OC
inactive: dose: 10.0 mg/kg/injection, schedule: Q01DX001 (ip), vehicle: carboxymethylcellulose (CMC) 100 % of control | dose: 20.0 mg/kg/injection, schedule: Q01DX001 (ip), vehicle: carboxymethylcellulose (CMC) 100 % of control | dose: 40.0 mg/kg/injection, schedule: Q01DX001 (ip), vehicle: carboxymethylcellulose (CMC) 96 % of control | dose: 80.0 mg/kg/injection, schedule: Q01DX001 (ip), vehicle: carboxymethylcellulose (CMC) 96 % of control

O=C1c2ccccc2C(=O)N1CNc1cccc(NCN2C(=O)c3ccccc3C2=O)c1
inactive: [3] 91 % of control | [4] 97 % of control | [5] 102 % of control

CN(CCO)CC1COc2ccccc2O1 (stereo not given)
inactive: dose: 50.0 mg/kg/injection, schedule: Q01DX001 (ip), vehicle: saline 97 % of control | [1] 105 % of control | [2] 88 % of control

CCOCCOC(=O)c1ccc(C(=N)OCC)cc1
inactive: [1] 90 % of control | [2] 90 % of control | [6] 86 % of control

ClC(Cl)(Cl)C(Cl)(Cl)c1ccc(C(Cl)(Cl)C(Cl)(Cl)Cl)cc1
inactive: dose: 100.0 mg/kg/injection, schedule: Q01DX009 (ip), vehicle: saline sonified 95 % of control | [7] 89 % of control | dose: 200.0 mg/kg/injection, schedule: Q01DX009 (ip), vehicle: saline sonified 94 % of control | [8] 94 % of control | dose: 400.0 mg/kg/injection, schedule: Q01DX009 (ip), vehicle: saline sonified 94 % of control | [9] 96 % of control

CC(=O)OC(C)C1C2=C(C(=O)CC1(C)O)C(=O)c1c(ccc(-c3ccc4c(c3O)C(=O)C3=C(C4=O)C(C(C)OC(C)=O)C(C)(O)CC3=O)c1O)C2=O (stereo not given)
inactive: dose: 6.25 mg/kg/injection, schedule: Q01DX009 (ip), vehicle: saline with Tween-80 111 % of control | dose: 12.5 mg/kg/injection, schedule: Q01DX009 (ip), vehicle: saline with Tween-80 109 % of control

O=NN(CCCl)C(=O)CCCCC(=O)N(CCCl)N=O
active: dose: 25.0 mg/kg/injection, schedule: Q01DX001 (ip), vehicle: carboxymethylcellulose (CMC) 154 % of control | [10] 160 % of control | [12] 165 % of control
inactive: [11] 75 % of control | [13] 67 % of control | [14] 122 % of control

Cc1cn(C2CCCO2)c(=O)[nH]c1=O (stereo not given)
inactive: [1] 106 % of control | [2] 101 % of control | [6] 95 % of control

CC(=O)Nc1ccc(NC(=S)Nc2ccc(NC(C)=O)cc2)cc1
inactive: dose: 50.0 mg/kg/injection, schedule: Q01DX009 (ip), vehicle: Klucel (hydroxypropylcellulose) (HPC) 101 % of control | dose: 100.0 mg/kg/injection, schedule: Q01DX009 (ip), vehicle: Klucel (hydroxypropylcellulose) (HPC) 104 % of control | [7] 97 % of control | [8] 93 % of control

NNc1ccc(Cl)c(S(=O)(=O)O)c1
inactive: [15] 100 % of control | dose: 100.0 mg/kg/injection, schedule: Q04DX003 (ip), vehicle: alcohol 98 % of control | [16] 100 % of control | dose: 200.0 mg/kg/injection, schedule: Q04DX003 (ip), vehicle: alcohol 104 % of control | [17] 103 % of control | dose: 400.0 mg/kg/injection, schedule: Q04DX003 (ip), vehicle: alcohol 106 % of control

COc1cccc(CN(C)C)c1C(O)c1ccccc1 (stereo not given)
inactive: [10] 95 % of control | [12] 97 % of control | [14] 106 % of control

CC(C)CC[n+]1cccc(C(N)=O)c1
inactive: [18] 100 % of control | [19] 110 % of control | [20] 113 % of control

CC(=O)Nc1ccc(C(=O)C[n+]2ccc3ccccc3c2)cc1
inactive: [7] 97 % of control | [8] 92 % of control | [9] 94 % of control

CCOC(=O)c1c[nH]c(=O)c([N+](=O)[O-])c1O
inactive: dose: 100.0 mg/kg/injection, schedule: Q01DX009 (ip), vehicle: saline with Tween-80 98 % of control | [3] 96 % of control | dose: 200.0 mg/kg/injection, schedule: Q01DX009 (ip), vehicle: saline with Tween-80 109 % of control | [4] 98 % of control | dose: 400.0 mg/kg/injection, schedule: Q01DX009 (ip), vehicle: saline with Tween-80 92 % of control | [5] 90 % of control

O=C(O)C(C(=O)O)C1Cc2cccc3cccc1c23 (stereo not given)
inactive: dose: 25.0 mg/kg/injection, schedule: Q04DX003 (ip), vehicle: saline with Tween-80 96 % of control | dose: 50.0 mg/kg/injection, schedule: Q04DX003 (ip), vehicle: saline with Tween-80 98 % of control | [3] 100 % of control

O=C(O)CCC(=O)Nc1cc(C(F)(F)F)ccc1Cl
inactive: [21] 102 % of control | [22] 97 % of control | [23] 108 % of control

CC(C)C[CH2][Pb]([CH2]CC(C)C)([CH2]CC(C)C)[O]C(=O)C(C)C
inactive: dose: 1.56 mg/kg/injection, schedule: Q01DX009 (ip), vehicle: Klucel (hydroxypropylcellulose) (HPC) 97 % of control | dose: 3.12 mg/kg/injection, schedule: Q01DX009 (ip), vehicle: Klucel (hydroxypropylcellulose) (HPC) 93 % of control | dose: 3.12 mg/kg/injection, schedule: Q04DX002 (ip), vehicle: Klucel (hydroxypropylcellulose) (HPC) 111 % of control | dose: 6.25 mg/kg/injection, schedule: Q04DX002 (ip), vehicle: Klucel (hydroxypropylcellulose) (HPC) 115 % of control

OC(C=C(C(F)(F)F)C(F)(F)F)c1cccc(Cl)c1 (stereo not given)
inactive: dose: 100.0 mg/kg/injection, schedule: Q04DX003 (sc), vehicle: olive oil, sesame oil, peanut oil 97 % of control | dose: 200.0 mg/kg/injection, schedule: Q04DX003 (sc), vehicle: olive oil, sesame oil, peanut oil 95 % of control | dose: 400.0 mg/kg/injection, schedule: Q04DX003 (sc), vehicle: olive oil, sesame oil, peanut oil 91 % of control

CCN1CCCC(OC(=O)c2cccc3[nH]ccc23)C1 (stereo not given)
inactive: [11] 93 % of control | [7] 103 % of control | [13] 97 % of control | [8] 101 % of control | dose: 400.0 mg/kg/injection, schedule: Q01DX001 (ip), vehicle: Klucel (hydroxypropylcellulose) (HPC) 98 % of control | [9] 101 % of control

C/C(C(=O)O)=C(\C)C(=O)O
inactive: [15] 104 % of control | [21] 108 % of control | [16] 97 % of control | [22] 104 % of control | [17] 108 % of control | [23] 101 % of control

COC(=O)C(C)NC(=O)C1CSC(C)(C)N1C=O (stereo not given)
inactive: [18] 101 % of control | [19] 95 % of control | [20] 95 % of control

Nc1nc(N)c(N=Nc2ccc(S(=O)(=O)Nc3ncccn3)cc2)cc1N=Nc1ccccc1
inactive: [12] 101 % of control | [14] 95 % of control | dose: 400.0 mg/kg/injection, schedule: Q01DX001 (ip), vehicle: carboxymethylcellulose (CMC) 103 % of control

CCSC1(SCC)C2(CCCCC2)C(=O)C12CCCCC2
inactive: dose: 100.0 mg/kg/injection, schedule: Q04DX002 (ip), vehicle: Klucel (hydroxypropylcellulose) (HPC) 93 % of control | dose: 200.0 mg/kg/injection, schedule: Q04DX002 (ip), vehicle: Klucel (hydroxypropylcellulose) (HPC) 96 % of control | dose: 400.0 mg/kg/injection, schedule: Q04DX002 (ip), vehicle: Klucel (hydroxypropylcellulose) (HPC) 96 % of control
